Data on eleven molecules can be found in ChEMBL document CHEMBL1201862, “PubChem BioAssay data set” (2004).

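48-hour exposure; five concentrations; linearly interpolated endpoints. At the GI50, growth is halved.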 Active and inactive are the calls of the source. Rule as the data show it: active = GI50 up to about 1.1 µM and inactive = higher. Bounds are passed on as bounds.

Among the test systems are OVCAR-4; A549; SNB-19; SK-MEL-28; NCI/ADR-RES; COLO 205; SNB-75; MOLT-4; Hs-578T; Malme-3M; A498; NCI-H460; TK-10; RPMI-8226; SF-268; UACC-62; HCT-116; MDA-MB-231; SK-OV-3; HCC 2998.
Holding throughout (assay): DTP human tumour cell line panel, 48 h

`CCCN(CCC)C(=O)c1c(N2CCN(C)CC2)c2cccnc2n2c(C)cnc12`: the GI50 was > 100 µM (inactive) in the experiment with OVCAR-4; > 100 µM (inactive) in the experiment on A549; 27.5 µM (inactive) in the experiment with SNB-19; > 100 µM (inactive) in the experiment with SK-MEL-28; > 100 µM (inactive) with NCI/ADR-RES; > 100 µM (inactive) with COLO 205. The GI50 was > 100 µM (inactive) in the experiment on SNB-75; 85.9 µM (inactive) in the experiment on MOLT-4; > 100 µM (inactive) with Hs-578T; > 100 µM (inactive) in the experiment on Malme-3M; 78.5 µM (inactive) in the experiment on A498; > 100 µM (inactive) with NCI-H460. Also, the GI50 with TK-10, with RPMI-8226, with SF-268, in the experiment on UACC-62, in the experiment on HCT-116 and in the experiment on MDA-MB-231 was > 100 µM (inactive) each time.
For the molecule `COc1ccc2c(C(=O)c3c(C)n(CCN4CCOCC4)c4ccccc34)cccc2c1`, the GI50 is 21.2 µM (inactive) with OVCAR-4; 24.5 µM (inactive) with A549; 46.1 µM (inactive) in the experiment on SNB-19; > 100 µM (inactive) with SK-MEL-28; 16.9 µM (inactive) in the experiment on NCI/ADR-RES; 39.6 µM (inactive) in the experiment with SK-OV-3. For the same molecule, the GI50 in the experiment with COLO 205 is 12.2 µM (inactive); with MOLT-4, 19.4 µM (inactive); in the experiment on Hs-578T, 10.8 µM (inactive); in the experiment on Malme-3M, 17.5 µM (inactive); with A498, 81.8 µM (inactive); in the experiment with NCI-H460, 29 µM (inactive). In addition, the GI50 is 58.5 µM (inactive) with TK-10; 24.7 µM (inactive) in the experiment with RPMI-8226; 16.1 µM (inactive) with SF-268; 18.2 µM (inactive) in the experiment on UACC-62; 25.5 µM (inactive) with HCT-116; 22.6 µM (inactive) in the experiment on MDA-MB-231.
`CCCC(C)NC(=O)c1ccc(N(C)Cc2cnc3nc(N)nc(N)c3n2)cc1` (stereo unspecified): the GI50 in the experiment with SNB-19 is 22.6 µM (inactive); in the experiment with SK-MEL-28, 18.5 µM (inactive); with NCI/ADR-RES, > 100 µM (inactive); with SK-OV-3 it was 41.6 µM (inactive); in the experiment on COLO 205, 28.2 µM (inactive); with SNB-75, 24.4 µM (inactive). Besides, the GI50 in the experiment with MOLT-4 was 33.2 µM (inactive); with Hs-578T, 16.2 µM (inactive); with Malme-3M, 16.9 µM (inactive); in the experiment on A498, 69 µM (inactive); with NCI-H460, 21.5 µM (inactive); in the experiment with TK-10, 31.3 µM (inactive). For the same molecule, the GI50 is 91 µM (inactive) in the experiment with RPMI-8226; 12 µM (inactive) with SF-268; 6.3 µM (inactive) with UACC-62; 5.16 µM (inactive) with HCT-116; 27.5 µM (inactive) in the experiment with MDA-MB-231.
On to `Nc1nc(Cl)cc(NCC2(CO)CCC(O)C2)n1` (stereo unspecified), for which the GI50 with OVCAR-4, in the experiment with A549, in the experiment with SNB-19, in the experiment with SK-MEL-28, with NCI/ADR-RES and in the experiment on SK-OV-3 was > 100 µM (inactive) throughout. Further, the GI50 in the experiment with COLO 205, with SNB-75, with MOLT-4, in the experiment with Hs-578T, in the experiment with Malme-3M and in the experiment on A498 was > 100 µM (inactive) each time. Besides, the GI50 in the experiment on NCI-H460, with TK-10, in the experiment on RPMI-8226, in the experiment with SF-268, in the experiment with UACC-62 and in the experiment with HCT-116 was > 100 µM (inactive) each time. The GI50 with MDA-MB-231 is > 100 µM (inactive).
For the molecule `Cc1ccc2c(c1)nc(N)n[n+]2[O-]`, the GI50 in the experiment with OVCAR-4, with A549, in the experiment on SNB-19, in the experiment with SK-MEL-28, in the experiment with NCI/ADR-RES and in the experiment on SK-OV-3 was > 100 µM (inactive) each time. Also, the GI50 was > 100 µM (inactive) in the experiment with COLO 205; 85.9 µM (inactive) in the experiment with SNB-75; > 100 µM (inactive) in the experiment with MOLT-4; > 100 µM (inactive) in the experiment on Hs-578T; > 100 µM (inactive) in the experiment with A498; > 100 µM (inactive) with NCI-H460. The GI50 in the experiment on TK-10, in the experiment on RPMI-8226, in the experiment on SF-268, in the experiment with UACC-62, in the experiment with HCT-116 and in the experiment with MDA-MB-231 was > 100 µM (inactive) each time.
In the case of `CC1CC(N2CCOCC2)=Nc2ccccc2N1Cc1ccccc1` (stereo unspecified), the GI50 with OVCAR-4 was 56.2 µM (inactive); with A549 it was > 100 µM (inactive); in the experiment with SNB-19, > 100 µM (inactive); in the experiment with SK-MEL-28, 49.1 µM (inactive); with NCI/ADR-RES it was 73.8 µM (inactive); in the experiment with SK-OV-3, 61.2 µM (inactive). In addition, the GI50 in the experiment with COLO 205 is 30.9 µM (inactive); in the experiment with Hs-578T it was 34.4 µM (inactive); in the experiment with Malme-3M, 19 µM (inactive); in the experiment on A498, 20.5 µM (inactive); in the experiment on NCI-H460, > 100 µM (inactive); in the experiment with TK-10 it was > 100 µM (inactive). Moreover, the GI50 was 48.2 µM (inactive) in the experiment with RPMI-8226; 74 µM (inactive) in the experiment with SF-268; 44.6 µM (inactive) in the experiment on UACC-62; > 100 µM (inactive) with HCT-116; > 100 µM (inactive) in the experiment on MDA-MB-231.
Take `CN(C(=O)C12C3(C(=O)O)C4C5(C(=O)O)C3C1(C(=O)O)C5C42C(=O)O)C(C)(C)C` (stereo unspecified): the GI50 in the experiment on OVCAR-4, in the experiment with A549, in the experiment on SNB-19, with SK-MEL-28, with NCI/ADR-RES and in the experiment on COLO 205 was > 100 µM (inactive) in each case. Moreover, the GI50 is 0.442 µM (active) with SNB-75; > 100 µM (inactive) with MOLT-4; > 100 µM (inactive) with HCC 2998; > 100 µM (inactive) in the experiment on Hs-578T; > 100 µM (inactive) in the experiment with A498; > 100 µM (inactive) in the experiment on NCI-H460. Also, the GI50 in the experiment with TK-10, with SF-268, in the experiment with UACC-62, in the experiment with HCT-116 and with MDA-MB-231 was > 100 µM (inactive) in each case.
Regarding `C/C(=C/CC[C@](C)(OC1OC(CO)C(O)C(O)C1OC1OC(C)C(O)C(O)C1O)[C@H]1CC[C@]2(C)[C@@H]1CC[C@@H]1[C@@]3(C)CC[C@H](O)C(C)(C)[C@@H]3C[C@H](O)[C@]12C)CO` (stereo partly specified), the GI50 with OVCAR-4, in the experiment with A549, in the experiment with SNB-19, in the experiment with SK-MEL-28, in the experiment on NCI/ADR-RES and with SK-OV-3 was > 100 µM (inactive) throughout. Further, the GI50 in the experiment with COLO 205, with SNB-75, with MOLT-4, in the experiment on Hs-578T, in the experiment with Malme-3M and in the experiment on A498 was > 100 µM (inactive) each time. Also, the GI50 with NCI-H460, with TK-10, in the experiment on RPMI-8226, with SF-268, with UACC-62 and with HCT-116 was > 100 µM (inactive) throughout. In the experiment with MDA-MB-231, the GI50 is > 100 µM (inactive).
With `COCC1OC(Sc2ccccc2)C(O)C(OC)C1OC` (stereo unspecified), the GI50 with OVCAR-4, with A549, with SNB-19, with SK-MEL-28, with NCI/ADR-RES and with SK-OV-3 was > 100 µM (inactive) throughout. Also, the GI50 with COLO 205, with MOLT-4, with HCC 2998, in the experiment with Hs-578T, in the experiment on Malme-3M and in the experiment on NCI-H460 was > 100 µM (inactive) each time. Besides, the GI50 with TK-10, in the experiment with SF-268, in the experiment on UACC-62, with HCT-116 and in the experiment with MDA-MB-231 was > 100 µM (inactive) in each case.
With `COc1ccc(NC(C)=O)c(C(O)CCNC(C)=O)c1` (stereo unspecified), the GI50 in the experiment on OVCAR-4, in the experiment with A549, in the experiment with SNB-19, in the experiment with NCI/ADR-RES, in the experiment with SK-OV-3 and in the experiment with COLO 205 was > 100 µM (inactive) in each case. Further, the GI50 in the experiment on SNB-75 was > 100 µM (inactive); in the experiment with MOLT-4 it was > 100 µM (inactive); in the experiment with Hs-578T, > 100 µM (inactive); with A498, 31.5 µM (inactive); in the experiment with NCI-H460 it was > 100 µM (inactive); with TK-10 it was > 100 µM (inactive). Besides, the GI50 in the experiment with RPMI-8226, in the experiment on SF-268, with UACC-62, in the experiment on HCT-116 and in the experiment on MDA-MB-231 was > 100 µM (inactive) in each case.
As for `Cc1cc(Cl)nc2ccc(Cc3ccc4nc(Cl)cc(C)c4c3)cc12`, the GI50 in the experiment on OVCAR-4 is 34.8 µM (inactive); in the experiment with A549, 47.5 µM (inactive); with SNB-19, 32.4 µM (inactive); in the experiment with SK-MEL-28 it was > 100 µM (inactive); with NCI/ADR-RES it was 33.5 µM (inactive); with SK-OV-3, 14 µM (inactive). For the same molecule, the GI50 was > 100 µM (inactive) with COLO 205; 3.3 µM (inactive) in the experiment with SNB-75; > 100 µM (inactive) in the experiment with MOLT-4; 36.3 µM (inactive) in the experiment on Hs-578T; 21.8 µM (inactive) in the experiment with Malme-3M; 21 µM (inactive) with A498. Further, the GI50 in the experiment on NCI-H460 was 41.5 µM (inactive); in the experiment with TK-10 it was 20.7 µM (inactive); with RPMI-8226 it was 36.6 µM (inactive); with SF-268 it was 43.2 µM (inactive); in the experiment on UACC-62 it was 51.6 µM (inactive); in the experiment on HCT-116, 22.8 µM (inactive). Also, the GI50 with MDA-MB-231 is 17.1 µM (inactive).

For orientation: GI50 means the concentration that inhibits growth by half.
